Results as given in paper PMC6978363, “Chaperone mediated detection of small molecule target binding in cells” (Nature Communications, 2020).

Target: T1, c-RAF (Homo sapiens, UniProt P04049)
T1 construct: gene RAF1
Experiment: c-RAF protein level change by immunofluorescence in A549 cells (with and without 17-AAG)
Type: cell-based

T1 sequence (P04049 whole entry): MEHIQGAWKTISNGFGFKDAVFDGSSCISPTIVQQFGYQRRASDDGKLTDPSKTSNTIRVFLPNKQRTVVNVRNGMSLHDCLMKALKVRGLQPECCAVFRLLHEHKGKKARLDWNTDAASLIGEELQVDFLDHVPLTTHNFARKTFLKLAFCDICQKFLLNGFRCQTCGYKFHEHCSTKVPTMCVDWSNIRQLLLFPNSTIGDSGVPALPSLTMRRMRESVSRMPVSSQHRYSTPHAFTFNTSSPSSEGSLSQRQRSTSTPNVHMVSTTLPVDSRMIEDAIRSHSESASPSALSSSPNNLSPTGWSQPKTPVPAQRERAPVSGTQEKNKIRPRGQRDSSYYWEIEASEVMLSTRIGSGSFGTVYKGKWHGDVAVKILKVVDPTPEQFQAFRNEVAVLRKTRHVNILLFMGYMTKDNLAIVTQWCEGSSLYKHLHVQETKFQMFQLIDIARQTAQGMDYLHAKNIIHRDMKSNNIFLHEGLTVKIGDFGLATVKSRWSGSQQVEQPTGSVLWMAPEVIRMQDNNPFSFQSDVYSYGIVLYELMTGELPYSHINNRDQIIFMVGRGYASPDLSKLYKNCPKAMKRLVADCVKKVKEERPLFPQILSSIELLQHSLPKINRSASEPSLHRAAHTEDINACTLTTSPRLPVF

## Cc1ccc(NC(=O)c2ccnc(C(F)(F)F)c2)cc1-c1cc(N2CCOCC2)nc(N2CC(O)C2)c1 [Novartis pan-RAF inhibitor]
  c-RAF protein level change by immunofluorescence in A549 cells (with and without): The interactions between c-RAF and these inhibitors are examples of a small molecule causing a direct effect on protein abundance
